# Results taken from patent US20220282217A1, “COMPOSITIONS AND METHODS FOR PREPARING T CELL COMPOSITIONS AND USES THEREOF” (priority 2019, published 2022).
# Like-named read-outs stand apart in the source and are kept apart here. Where a SMILES comes first, the peptide text is derived from it.
# Target: HLA-A02.01 (Homo sapiens, UniProt P04439, D140Y/D185E/D98H/E176V/E277Q/G131W/G231S/I119V/I121R/I166T/I218V/L300P/L318F/N151K/N90K/P208A/P217A/Q86G/Q94H/R138H/R169H/T345S)
# Test: Class I MHC peptide binding affinity (displacement of radiolabeled reference peptide)
# Experimental: In brief, MHCI complexes were prepared and bound to radiolabeled reference peptides. Peptides were incubated at varying concentrations with these complexes for 2 days, and the amount of remaining radiolabeled peptide bound to […] was measured using size exclusion gel-filtration.
# [1] = allele A02.01, read-out: Observed Affinity (IC50, (nM))
# [2] = Observed Affinity (IC50, (nM)), allele A02.01
SMILES,IC50 [1] [nM],further results
CC(C)C[C@H](NC(=O)[C@H](C)N)C(=O)N[C@@H](CC(N)=O)C(=O)N[C@@H](CO)C(=O)N[C@@H](CCC(=O)O)C(=O)N[C@@H](C)C(=O)N[C@@H](CC(C)C)C(=O)N[C@@H](CO)C(=O)N[C@H](C(=O)N[C@H](C(=O)O)C(C)C)C(C)C,15,
CC[C@H](C)[C@H](NC(=O)[C@H](CC(C)C)NC(=O)[C@@H](N)CS)C(=O)N[C@H](C(=O)N[C@@H](CO)C(=O)N[C@@H](CCCNC(=N)N)C(=O)N[C@H](C(=O)N[C@@H](CC(C)C)C(=O)N[C@@H](CC(C)C)C(=O)N[C@@H](CC(C)C)C(=O)O)[C@@H](C)O)C(C)C,2010,
CC[C@H](C)[C@H](NC(=O)[C@@H]1CCCN1C(=O)[C@H](CCCNC(=N)N)NC(=O)[C@H](CCC(N)=O)NC(=O)[C@H](CC(N)=O)NC(=O)[C@H](CCSC)NC(=O)CNC(=O)CNC(=O)[C@H](CCSC)NC(=O)[C@@H](N)CS)C(=O)O,3670,
CC[C@H](C)[C@H](NC(=O)[C@H](CC(C)C)NC(=O)[C@@H]1CCCN1C(=O)[C@H](Cc1ccccc1)NC(=O)[C@H](CC(C)C)NC(=O)[C@@H](N)CCC(=O)O)C(=O)N[C@@H](Cc1ccccc1)C(=O)N1CCC[C@H]1C(=O)N[C@@H](C)C(=O)O,13,
CSCC[C@H](NC(=O)[C@H](CCCCN)NC(=O)CNC(=O)[C@H](CC(N)=O)NC(=O)[C@H](CCC(N)=O)NC(=O)[C@@H](N)Cc1ccccc1)C(=O)N[C@@H](C)C(=O)N[C@@H](CC(C)C)C(=O)N[C@@H](CO)C(=O)N[C@@H](C)C(=O)O,6160,
CC(C)C[C@H](NC(=O)CNC(=O)[C@H](Cc1c[nH]c2ccccc12)NC(=O)[C@H](CC(=O)O)NC(=O)[C@H](CCCCN)NC(=O)CNC(=O)[C@H](CCC(N)=O)NC(=O)[C@@H](NC(=O)[C@@H](N)Cc1ccccc1)C(C)C)C(=O)O,34,
CC[C@H](C)[C@H](N)C(=O)N[C@H](C(=O)N[C@H](C(=O)N[C@@H](CCC(=O)O)C(=O)N[C@@H](Cc1ccccc1)C(=O)N[C@@H](CCSC)C(=O)N[C@H](C(=O)N[C@@H](Cc1ccc(O)cc1)C(=O)NCC(=O)N[C@@H](CC(N)=O)C(=O)O)[C@@H](C)O)[C@@H](C)CC)[C@@H](C)CC,,IC50 [2]: 1550 nM
CC[C@H](C)[C@H](N)C(=O)N[C@@H](CCC(N)=O)C(=O)N[C@@H](CC(C)C)C(=O)N[C@@H](CCC(N)=O)C(=O)N[C@@H](CC(=O)O)C(=O)N[C@@H](CCCCN)C(=O)N[C@@H](Cc1ccccc1)C(=O)N[C@@H](CCC(=O)O)C(=O)N[C@@H](Cc1c[nH]cn1)C(=O)N[C@@H](CC(C)C)C(=O)O,4270,
CC[C@H](C)[C@H](NC(=O)[C@@H](N)CC(C)C)C(=O)N[C@H](C(=O)N[C@@H](CO)C(=O)N[C@@H](CCCNC(=N)N)C(=O)N[C@H](C(=O)N[C@@H](CC(C)C)C(=O)N[C@@H](CC(C)C)C(=O)N[C@@H](CC(C)C)C(=O)O)[C@@H](C)O)C(C)C,173,
CC[C@H](C)[C@H](NC(=O)[C@@H]1CCCN1C(=O)[C@H](CC(C)C)NC(=O)[C@@H](N)CC(C)C)C(=O)N1CCC[C@H]1C(=O)N1CCC[C@H]1C(=O)N[C@@H](CC(C)C)C(=O)N[C@@H](CO)C(=O)N1CCC[C@H]1C(=O)N[C@@H](CO)C(=O)O,,IC50 [2]: 449 nM
CC[C@H](C)[C@H](NC(=O)[C@H](Cc1ccccc1)NC(=O)[C@H](CCCNC(=N)N)NC(=O)[C@@H]1CCCN1C(=O)[C@H](CC(C)C)NC(=O)[C@H](CO)NC(=O)[C@H](CCC(N)=O)NC(=O)[C@@H](N)CC(C)C)C(=O)N[C@@H](CC(C)C)C(=O)N[C@@H](CCSC)C(=O)O,413,
CC(C)C[C@H](NC(=O)[C@H](CO)NC(=O)[C@H](CC(N)=O)NC(=O)[C@H](CS)NC(=O)[C@H](CCC(=O)O)NC(=O)[C@H](Cc1c[nH]cn1)NC(=O)[C@H](CC(C)C)NC(=O)[C@@H](NC(=O)[C@H](CCC(N)=O)NC(=O)[C@@H](N)CC(C)C)C(C)C)C(=O)O,4720,
CSCC[C@H](N)C(=O)N[C@@H](C)C(=O)N[C@@H](CC(C)C)C(=O)N[C@@H](CC(N)=O)C(=O)N[C@@H](CO)C(=O)N[C@@H](CCC(=O)O)C(=O)N[C@@H](C)C(=O)N[C@@H](CC(C)C)C(=O)N[C@@H](CO)C(=O)N[C@H](C(=O)O)C(C)C,129,
CSCC[C@H](N)C(=O)N[C@@H](C)C(=O)N[C@@H](CC(N)=O)C(=O)NCC(=O)N[C@@H](CO)C(=O)N[C@@H](CC(C)C)C(=O)N[C@@H](CC(C)C)C(=O)N[C@@H](CC(N)=O)C(=O)N[C@@H](Cc1ccc(O)cc1)C(=O)N[C@@H](CC(C)C)C(=O)O,1080,"IC50 (BTK C481S peptide, HLA Allele A02.01, read-out: Affinity): 1010 nM"
CSCC[C@H](NC(=O)[C@H](CCCCN)NC(=O)[C@H](CCCNC(=N)N)NC(=O)[C@H](CC(C)C)NC(=O)[C@H](CC(N)=O)NC(=O)[C@H](CC(C)C)NC(=O)[C@H](CCCNC(=N)N)NC(=O)[C@H](CC(C)C)NC(=O)[C@H](CC(C)C)NC(=O)[C@@H](N)CCSC)C(=O)O,2510,
CC[C@H](C)[C@H](NC(=O)[C@@H]1CCCN1C(=O)[C@H](CCCNC(=N)N)NC(=O)[C@H](CCCNC(=N)N)NC(=O)[C@H](CC(N)=O)NC(=O)[C@H](CCSC)NC(=O)[C@@H](N)CO)C(=O)N[C@@H](CC(C)C)C(=O)N[C@H](C(=O)O)[C@@H](C)O,3840,
CC[C@H](C)[C@H](NC(=O)[C@H](CCC(N)=O)NC(=O)[C@@H](N)CO)C(=O)N[C@@H](CCSC)C(=O)N[C@@H](CO)C(=O)N[C@@H](CC(C)C)C(=O)N[C@@H](Cc1c[nH]c2ccccc12)C(=O)NCC(=O)N[C@@H](CC(C)C)C(=O)O,62,
CC[C@H](C)[C@H](NC(=O)[C@@H]1CCCN1C(=O)[C@H](CCCNC(=N)N)NC(=O)[C@H](Cc1c[nH]cn1)NC(=O)[C@@H]1CCCN1C(=O)[C@H](CS)NC(=O)[C@H](CCCNC(=N)N)NC(=O)[C@H](CCC(=O)O)NC(=O)[C@H](CC(C)C)NC(=O)[C@@H](N)C(C)C)C(=O)O,15300,
CC(C)C[C@H](NC(=O)[C@@H](N)C(C)C)C(=O)N[C@@H](CCC(N)=O)C(=O)N[C@@H](CCCNC(=N)N)C(=O)N[C@@H](Cc1ccccc1)C(=O)N[C@@H](CCCNC(=N)N)C(=O)N[C@@H](Cc1ccccc1)C(=O)N[C@H](C(=O)N[C@@H](Cc1c[nH]cn1)C(=O)N[C@H](C(=O)O)C(C)C)[C@@H](C)O,107,
CC[C@H](C)[C@H](NC(=O)[C@H](Cc1ccc(O)cc1)NC(=O)[C@H](CCC(=O)O)NC(=O)CNC(=O)[C@H](CO)NC(=O)[C@H](Cc1ccccc1)NC(=O)[C@H](C)N)C(=O)N1CCC[C@H]1C(=O)N[C@H](C(=O)N[C@H](C(=O)O)C(C)C)[C@@H](C)O (H-AFSGEYIPTV-OH; N-terminus and C-terminus assumed),781,
CC[C@H](C)[C@H](NC(=O)[C@H](C)N)C(=O)N[C@@H](CCC(N)=O)C(=O)N1CCC[C@H]1C(=O)N[C@H](C(=O)N[C@@H](CC(C)C)C(=O)N[C@@H](Cc1c[nH]c2ccccc12)C(=O)N[C@H](C(=O)N[C@H](C(=O)O)[C@@H](C)O)[C@@H](C)O)C(C)C (H-AIQPVLWTT-OH; N-terminus and C-terminus assumed),8.1,
CSCC[C@H](NC(=O)[C@H](Cc1c[nH]cn1)NC(=O)[C@@H](NC(=O)[C@H](CC(C)C)NC(=O)[C@@H](NC(=O)[C@@H]1CCCN1C(=O)[C@H](C)NC(=O)[C@H](CC(C)C)NC(=O)[C@H](C)N)[C@@H](C)O)[C@@H](C)O)C(=O)O (H-ALAPTLTHM-OH; N-terminus and C-terminus assumed),59,
CSCC[C@H](NC(=O)[C@H](Cc1c[nH]cn1)NC(=O)[C@@H](NC(=O)[C@H](CC(C)C)NC(=O)[C@@H](NC(=O)[C@@H]1CCCN1C(=O)[C@H](C)NC(=O)[C@H](CC(C)C)NC(=O)[C@H](C)N)[C@@H](C)O)[C@@H](C)O)C(=O)N[C@@H](CC(C)C)C(=O)O (H-ALAPTLTHML-OH; N-terminus and C-terminus assumed),39,
CC(C)C[C@H](NC(=O)[C@H](C)N)C(=O)N[C@@H](CCC(=O)O)C(=O)N[C@@H](CCC(=O)O)C(=O)N[C@@H](CCCCN)C(=O)N[C@@H](CCCCN)C(=O)NCC(=O)N[C@@H](CC(N)=O)C(=O)N[C@@H](Cc1ccc(O)cc1)C(=O)N[C@H](C(=O)O)C(C)C (H-ALEEKKGNYV-OH; N-terminus and C-terminus assumed),141,
CC(C)C[C@H](NC(=O)[C@H](C)N)C(=O)N[C@@H](Cc1ccccc1)C(=O)N[C@@H](Cc1ccccc1)C(=O)N[C@@H](Cc1ccccc1)C(=O)N[C@@H](Cc1ccccc1)C(=O)N[C@@H](Cc1ccccc1)C(=O)N[C@@H](CCC(=O)O)C(=O)N[C@H](C(=O)O)[C@@H](C)O (H-ALFFFFFET-OH; N-terminus and C-terminus assumed),471,
CSCC[C@H](NC(=O)[C@H](C)NC(=O)[C@H](CO)NC(=O)[C@H](CCSC)NC(=O)[C@H](CC(C)C)NC(=O)[C@H](C)N)C(=O)N[C@H](C(=O)N[C@H](C(=O)N[C@@H](CO)C(=O)O)[C@@H](C)O)[C@@H](C)O (H-ALMSAMTTS-OH; N-terminus and C-terminus assumed),139,
CC(C)C[C@H](NC(=O)[C@H](C)N)C(=O)N[C@@H](CC(N)=O)C(=O)N[C@@H](CO)C(=O)N[C@@H](CCC(=O)O)C(=O)N[C@@H](C)C(=O)N[C@@H](CC(C)C)C(=O)N[C@@H](CO)C(=O)N[C@H](C(=O)O)C(C)C (H-ALNSEALSV-OH),14,
CC(C)C[C@H](NC(=O)[C@H](C)N)C(=O)N[C@@H](CCC(N)=O)C(=O)N1CCC[C@H]1C(=O)N[C@@H](CC(C)C)C(=O)N[C@@H](CCC(N)=O)C(=O)N1CCC[C@H]1C(=O)N[C@@H](Cc1c[nH]cn1)C(=O)N[C@@H](C)C(=O)O (H-ALQPLQPHA-OH; N-terminus and C-terminus assumed),604,
CC(C)C[C@H](NC(=O)[C@H](C)N)C(=O)N[C@@H](Cc1c[nH]c2ccccc12)C(=O)N[C@@H](CCC(=O)O)C(=O)N[C@@H](CS)C(=O)N[C@@H](CO)C(=O)N[C@@H](CC(C)C)C(=O)N1CCC[C@H]1C(=O)N[C@@H](CCC(N)=O)C(=O)N[C@@H](C)C(=O)O (H-ALWECSLPQA-OH; N-terminus and C-terminus assumed),9,
